Laboratory results from ChEMBL document CHEMBL6114980, “Single or double lipid-modified ultra-short antimicrobial peptides for treating infections caused by resistant bacteria” (Eur J Med Chem, 2025).
Values after ≈ are worked out from the molar mass of the structure shown. Active and inactive are the calls of the source. The calls are words filed in the database; no cut-off is given here.

Assays:
Acinetobacter baumannii [1] = test: Antibacterial activity against Acinetobacter baumannii ATCC 19606 assessed as reduction in bacterial growth incubated for 18 to 24 hrs by broth microdilution method; assay type: functional; conditions: time 18-24 hrs
Klebsiella pneumoniae = test: Antibacterial activity against Klebsiella pneumoniae ATCC 700603 assessed as reduction in bacterial growth incubated for 18 to 24 hrs by broth microdilution method; assay type: functional; conditions: time 18-24 hrs
Escherichia coli [2] = test: Antibacterial activity against Escherichia coli ATCC 25922 assessed as reduction in bacterial growth incubated for 18 to 24 hrs by broth microdilution method; assay type: functional; conditions: time 18-24 hrs
Pseudomonas aeruginosa [3] = test: Antibacterial activity against Pseudomonas aeruginosa ATCC 27853 assessed as reduction in bacterial growth incubated for 18 to 24 hrs by broth microdilution method; assay type: functional; conditions: time 18-24 hrs
Staphylococcus aureus [4] = test: Antibacterial activity against methicillin-resistant Staphylococcus aureus ATCC 33591 assessed as reduction in bacterial growth incubated for 18 to 24 hrs by broth microdilution method; assay type: functional; conditions: time 18-24 hrs
Staphylococcus aureus [5] = test: Antibacterial activity against methicillin-resistant Staphylococcus aureus 75 assessed as reduction in bacterial growth incubated for 18 to 24 hrs by broth microdilution method; assay type: functional; conditions: time 18-24 hrs
Staphylococcus aureus [6] = test: Antibacterial activity against Staphylococcus aureus 113 assessed as reduction in bacterial growth incubated for 18 to 24 hrs by broth microdilution method; assay type: functional; conditions: time 18-24 hrs
Staphylococcus aureus [7] = test: Antibacterial activity against Staphylococcus aureus 125 assessed as reduction in bacterial growth incubated for 18 to 24 hrs by broth microdilution method; assay type: functional; conditions: time 18-24 hrs
Staphylococcus aureus [8] = test: Antibacterial activity against Staphylococcus aureus 794 assessed as reduction in bacterial growth incubated for 18 to 24 hrs by broth microdilution method; assay type: functional; conditions: time 18-24 hrs
Enterococcus faecalis = test: Antibacterial activity against Enterococcus faecalis ATCC 29212 assessed as reduction in bacterial growth incubated for 18 to 24 hrs by broth microdilution method; assay type: functional; conditions: time 18-24 hrs
[9] = system: Staphylococcus epidermidis; test: Antibacterial activity against Staphylococcus epidermidis ATCC 12228 assessed as reduction in bacterial growth incubated for 18 to 24 hrs by broth microdilution method; assay type: functional; conditions: time 18-24 hrs
Bacillus subtilis = test: Antibacterial activity against Bacillus subtilis ATCC 23857 assessed as reduction in bacterial growth incubated for 18 to 24 hrs by broth microdilution method; assay type: functional; conditions: time 18-24 hrs
Staphylococcus aureus [10] = test: Antibacterial activity against Staphylococcus aureus ATCC 25923 assessed as reduction in bacterial growth incubated for 18 to 24 hrs by broth microdilution method; assay type: functional; conditions: time 18-24 hrs
Acinetobacter baumannii [11] = test: Antibacterial activity against Acinetobacter baumannii 5444 assessed as reduction in bacterial growth incubated for 18 to 24 hrs by broth microdilution method; assay type: functional; conditions: time 18-24 hrs
Acinetobacter baumannii [12] = test: Antibacterial activity against Acinetobacter baumannii 92359 assessed as reduction in bacterial growth incubated for 18 to 24 hrs by broth microdilution method; assay type: functional; conditions: time 18-24 hrs
Escherichia coli [13] = test: Antibacterial activity against Escherichia coli 850 assessed as reduction in bacterial growth incubated for 18 to 24 hrs by broth microdilution method; assay type: functional; conditions: time 18-24 hrs
Escherichia coli [14] = test: Antibacterial activity against Escherichia coli 780 assessed as reduction in bacterial growth incubated for 18 to 24 hrs by broth microdilution method; assay type: functional; conditions: time 18-24 hrs
Pseudomonas aeruginosa [15] = test: Antibacterial activity against Pseudomonas aeruginosa 124 assessed as reduction in bacterial growth incubated for 18 to 24 hrs by broth microdilution method; assay type: functional; conditions: time 18-24 hrs
Pseudomonas aeruginosa [16] = test: Antibacterial activity against Pseudomonas aeruginosa 6434N assessed as reduction in bacterial growth incubated for 18 to 24 hrs by broth microdilution method; assay type: functional; conditions: time 18-24 hrs
Staphylococcus aureus [17] = test: Bactericidal activity against Staphylococcus aureus 25923 assessed as eradication of bacteria at 2 times MIC measured after 6 hrs by time-kill assay; assay type: functional, organism-based
Staphylococcus aureus [18] = test: Induction of morphological changes in Staphylococcus aureus assessed as cell aggregation adhesion at 2 times MIC measured after 120 mins by SEM analysis; assay type: functional, organism-based
Staphylococcus aureus [19] = test: Induction of cell membrane disruption in Staphylococcus aureus assessed as PI uptake at 2 to 4 times MIC measured after 120 mins by PI staining based flow cytometry analysis; assay type: functional, organism-based
Staphylococcus aureus [20] = test: Antibacterial activity against methicillin resistant Staphylococcus aureus infected in male BALB/c mouse model of skin wound infection assessed as reduction in wound area at 2 mg/kg, ip measured after 10 days post infection relative to control; assay type: functional; parameters: scale not given: the % may be the effect or the level left; conditions: time 10 day
Staphylococcus aureus [21] = test: Antibacterial activity against methicillin resistant Staphylococcus aureus infected in male BALB/c mouse model of skin wound infection assessed as appearance of intact structure of stratum corneum at 2 mg/kg, ip measured after 10 days post infection; assay type: functional, organism-based; conditions: time 10.0 day
Staphylococcus aureus [22] = test: Antibacterial activity against methicillin resistant Staphylococcus aureus infected in male BALB/c mouse model of skin wound infection assessed as healthy development of sebaceous glands at 2 mg/kg, ip measured after 10 days post infection; assay type: functional, organism-based; conditions: time 10.0 day
Staphylococcus aureus [23] = test: Antibacterial activity against methicillin resistant Staphylococcus aureus infected in male BALB/c mouse model of skin wound infection assessed as healthy development of hair follicles at 2 mg/kg, ip measured after 10 days post infection; assay type: functional, organism-based; conditions: time 10.0 day

Row | SMILES | MIC (Acinetobacter baumannii [1]) | MIC (Klebsiella pneumoniae) | MIC (Escherichia coli [2]) | MIC (Pseudomonas aeruginosa [3]) | MIC (Staphylococcus aureus [4]) | MIC (Staphylococcus aureus [5]) | MIC (Staphylococcus aureus [6]) | MIC (Staphylococcus aureus [7]) | MIC (Staphylococcus aureus [8]) | MIC (Enterococcus faecalis) | MIC [9] | MIC (Bacillus subtilis) | MIC (Staphylococcus aureus [10]) | MIC (Acinetobacter baumannii [11]) | MIC (Acinetobacter baumannii [12]) | MIC (Escherichia coli [13]) | MIC (Escherichia coli [14]) | MIC (Pseudomonas aeruginosa [15]) | MIC (Pseudomonas aeruginosa [16]) | other results
1 | CC(=O)OCC1=C(C(=O)O)N2C(=O)[C@@H](NC(=O)Cc3cccs3)[C@H]2SC1 [CEPHALOTHIN] | 32 µM (≈ 12.7 µg/mL) | 16 µM (≈ 6.34 µg/mL) | 1 µM (≈ 0.396 µg/mL) | 16 µM (≈ 6.34 µg/mL) | 128 µM (≈ 50.7 µg/mL) | 128 µM (≈ 50.7 µg/mL) | 8 µM (≈ 3.17 µg/mL) | 1 µM (≈ 0.396 µg/mL) | 128 µM (≈ 50.7 µg/mL) | 4 µM (≈ 1.59 µg/mL) | 1 µM (≈ 0.396 µg/mL) | 1 µM (≈ 0.396 µg/mL) | 1 µM (≈ 0.396 µg/mL) | 128 µM (≈ 50.7 µg/mL) | 128 µM (≈ 50.7 µg/mL) | 8 µM (≈ 3.17 µg/mL) | 1 µM (≈ 0.396 µg/mL) | 128 µM (≈ 50.7 µg/mL) | 16 µM (≈ 6.34 µg/mL) | 
2 | COc1cccc(OC)c1C(=O)N[C@@H]1C(=O)N2[C@@H]1SC(C)(C)[C@@H]2C(=O)O [METHICILLIN] | 128 µM (≈ 48.7 µg/mL) | 128 µM (≈ 48.7 µg/mL) | 128 µM (≈ 48.7 µg/mL) | 128 µM (≈ 48.7 µg/mL) | 128 µM (≈ 48.7 µg/mL) | 128 µM (≈ 48.7 µg/mL) | 8 µM (≈ 3.04 µg/mL) | 2 µM (≈ 0.761 µg/mL) | 128 µM (≈ 48.7 µg/mL) | 128 µM (≈ 48.7 µg/mL) | 4 µM (≈ 1.52 µg/mL) | 2 µM (≈ 0.761 µg/mL) | 1 µM (≈ 0.38 µg/mL) | 128 µM (≈ 48.7 µg/mL) | 128 µM (≈ 48.7 µg/mL) | 128 µM (≈ 48.7 µg/mL) | 128 µM (≈ 48.7 µg/mL) | 128 µM (≈ 48.7 µg/mL) | 128 µM (≈ 48.7 µg/mL) | 
3 | CN[C@@H]1[C@H](O[C@H]2[C@H](O[C@H]3[C@H](O)[C@@H](O)[C@H](N=C(N)N)[C@@H](O)[C@@H]3N=C(N)N)O[C@@H](C)[C@]2(O)C=O)O[C@@H](CO)[C@H](O)[C@H]1O [STREPTOMYCIN] | 64 µM (≈ 37.2 µg/mL) | 1 µM (≈ 0.582 µg/mL) | 4 µM (≈ 2.33 µg/mL) | 2 µM (≈ 1.16 µg/mL) | 64 µM (≈ 37.2 µg/mL) | 64 µM (≈ 37.2 µg/mL) | 128 µM (≈ 74.4 µg/mL) | 128 µM (≈ 74.4 µg/mL) | 128 µM (≈ 74.4 µg/mL) | 16 µM (≈ 9.31 µg/mL) | 1 µM (≈ 0.582 µg/mL) | 1 µM (≈ 0.582 µg/mL) | 1 µM (≈ 0.582 µg/mL) | 128 µM (≈ 74.4 µg/mL) | 128 µM (≈ 74.4 µg/mL) | 32 µM (≈ 18.6 µg/mL) | 128 µM (≈ 74.4 µg/mL) | 4 µM (≈ 2.33 µg/mL) | 2 µM (≈ 1.16 µg/mL) | 
4 | CN[C@H](CC(C)C)C(=O)N[C@H]1C(=O)N[C@@H](CC(N)=O)C(=O)N[C@H]2C(=O)N[C@H]3C(=O)N[C@H](C(=O)N[C@H](C(=O)O)c4cc(O)cc(O)c4-c4cc3ccc4O)[C@H](O)c3ccc(c(Cl)c3)Oc3cc2cc(c3O[C@@H]2O[C@H](CO)[C@@H](O)[C@H](O)[C@H]2O[C@H]2C[C@](C)(N)[C@H](O)[C@H](C)O2)Oc2ccc(cc2Cl)[C@H]1O [VANCOMYCIN] |  |  |  |  |  |  |  |  |  |  |  |  |  |  |  |  |  |  |  | Activity (Staphylococcus aureus [17]): inactive; Activity (Staphylococcus aureus [18]): inactive; Activity (Staphylococcus aureus [19]): inactive; Activity (Staphylococcus aureus [20]): <20%; Activity (Staphylococcus aureus [21]): Active; Activity (Staphylococcus aureus [22]): Active; Activity (Staphylococcus aureus [23]): Active
